Data from patent US9428514B2, “Bromodomain inhibitors” (AbbVie Inc., priority 2013, dated 2016).

system: breast cancer cell line MX-1; assay: MX-1 cell line proliferation assay (3-day, Cell Titer Glo); type: cell-based; details: Homo sapiens, MX1, MX-1 cells, 72 hours, read-out: Cellular proliferation: EC50
Procedure: The impact of compounds of the Examples on cancer cell proliferation was determined using the breast cancer cell line MX-1 (ATCC) in a 3-day proliferation assay. MX-1 cells were maintained in RPMI supplemented with 10% FBS at 37° C. and an atmosphere of 5% CO2. For compound testing, MX-1 cells were plated in 96-well black bottom plates at a density of 5000 cells/well in 90 μL of culture media and incubated at 37° overnight to allow cell adhesion and spreading. Compound dilution series were prepared in DMSO via a 3-fold serial dilution from 3 mM to […]. The DMSO dilution series were then diluted 1:100 in phosphate buffered saline, and 10 μL of the resulted solution were added to the appropriate wells of the MX-1 cell plate. The final compound concentrations in the wells were 3, 1, 0.3, 0.1, 0.03, 0.01, 0.003, 0.001, 0.0003, 0.0001, and 0.00003 μM.
Luminescence readings from the Cell Titer Glo assay were normalized to the DMSO treated cells and analyzed using the GraphPad Prism software with sigmoidal curve fitting to obtain EC50s. The minimum significant ratio (MSR) was determined to evaluate assay reproducibility (Eastwood et al., (2006) J Biomol Screen, 11: 253-261). The overall MSR was determined to be 2.1 and a moving MSR (last six run MSR overtime) has been <2. The EC50 values are reported in Table 1 for the indicated compounds.

Row | SMILES | EC50 [nM]
1 | CCOc1cc(=O)n(C)cc1-c1cc(NC(=O)Cc2ccc(-c3ccccc3)cc2)ccc1Oc1ccc(F)cc1F [Example 42, 2-(biphenyl-4-yl)-N-[4-(2,4-difluorophenoxy)-3-(4-ethoxy-1-methyl-6-oxo-1,6-dihydropyridin-3-yl)phenyl]acetamide] | 678
2 | CCOc1cc(=O)n(C)cc1-c1cc(NC(=O)Cc2ccc(OCc3ccccc3)cc2)ccc1Oc1ccc(F)cc1F [Example 45, 2-[4-(benzyloxy)phenyl]-N-[4-(2,4-difluorophenoxy)-3-(4-ethoxy-1-methyl-6-oxo-1,6-dihydropyridin-3-yl)phenyl]acetamide] | 981
3 | CCOc1cc(=O)n(C)cc1-c1cc(NC(=O)Cc2ccccc2OC)ccc1Oc1ccc(F)cc1F [Example 46, N-[4-(2,4-difluorophenoxy)-3-(4-ethoxy-1-methyl-6-oxo-1,6-dihydropyridin-3-yl)phenyl]-2-(2-methoxyphenyl)acetamide] | 449
4 | CCOc1cc(=O)n(C)cc1-c1cc(NCc2ccccc2C#N)ccc1Oc1ccc(F)cc1F [Example 57, 2-({[4-(2,4-difluorophenoxy)-3-(4-ethoxy-1-methyl-6-oxo-1,6-dihydropyridin-3-yl)phenyl]amino}methyl)benzonitrile] | 712
5 | CCOc1cc(=O)n(C)cc1-c1cc(NCc2ccc(F)cc2)ccc1Oc1ccc(F)cc1F [Example 64, 5-{2-(2,4-difluorophenoxy)-5-[(4-fluorobenzyl)amino]phenyl}-4-ethoxy-1-methylpyridin-2(1H)-one] | 508
6 | CCOc1cc(=O)n(C)cc1-c1cc(N(CC2CC2)S(=O)(=O)Cc2cc(F)ccc2Cl)ccc1Oc1ccc(F)cc1F [Example 66, 1-(2-chloro-5-fluorophenyl)-N-(cyclopropylmethyl)-N-[4-(2,4-difluorophenoxy)-3-(4-ethoxy-1-methyl-6-oxo-1,6-dihydropyridin-3-yl)phenyl]methanesulfonamide] | > 1000
7 | CCOc1cc(=O)n(C)cc1-c1cc(N(CC2CC2)C(=O)Cc2cc(F)ccc2Cl)ccc1Oc1ccc(F)cc1F [Example 67, 2-(2-chloro-5-fluorophenyl)-N-(cyclopropylmethyl)-N-[4-(2,4-difluorophenoxy)-3-(4-ethoxy-1-methyl-6-oxo-1,6-dihydropyridin-3-yl)phenyl]acetamide] | > 1000
8 | CCOc1cc(=O)n(C)cc1-c1cc(NC(=O)C(C)c2cc(F)ccc2Cl)ccc1Oc1ccc(F)cc1F (stereo not drawn) [Example 70, 2-(2-chloro-5-fluorophenyl)-N-[4-(2,4-difluorophenoxy)-3-(4-ethoxy-1-methyl-6-oxo-1,6-dihydropyridin-3-yl)phenyl]propanamide] | > 1000
9 | CCOc1cc(=O)n(C)cc1-c1cc(N(C)C(=O)Cc2cc(F)ccc2Cl)ccc1Oc1ccc(F)cc1F [Example 71, 2-(2-chloro-5-fluorophenyl)-N-[4-(2,4-difluorophenoxy)-3-(4-ethoxy-1-methyl-6-oxo-1,6-dihydropyridin-3-yl)phenyl]-N-methylacetamide] | > 1000
10 | CCOc1cc(=O)n(C)cc1-c1cc(N(CC2CC2)S(=O)(=O)CC)ccc1Oc1ccc(F)cc1F [Example 72, N-(cyclopropylmethyl)-N-[4-(2,4-difluorophenoxy)-3-(4-ethoxy-1-methyl-6-oxo-1,6-dihydropyridin-3-yl)phenyl]ethanesulfonamide] | 233
11 | CCOc1cc(=O)n(C)cc1-c1cc(N(Cc2ccccc2)S(=O)(=O)CC)ccc1Oc1ccc(F)cc1F [Example 73, N-benzyl-N-[4-(2,4-difluorophenoxy)-3-(4-ethoxy-1-methyl-6-oxo-1,6-dihydropyridin-3-yl)phenyl]ethanesulfonamide] | > 1000
12 | CCOc1cc(=O)n(C)cc1-c1cc(N(Cc2ccccc2Cl)S(=O)(=O)CC)ccc1Oc1ccc(F)cc1F [Example 74, N-(2-chlorobenzyl)-N-[4-(2,4-difluorophenoxy)-3-(4-ethoxy-1-methyl-6-oxo-1,6-dihydropyridin-3-yl)phenyl]ethanesulfonamide] | 464
13 | CCOc1cc(=O)n(C)cc1-c1cc(N(CCc2ccccc2)S(=O)(=O)CC)ccc1Oc1ccc(F)cc1F [Example 75, N-[4-(2,4-difluorophenoxy)-3-(4-ethoxy-1-methyl-6-oxo-1,6-dihydropyridin-3-yl)phenyl]-N-(2-phenylethyl)ethanesulfonamide] | 614
14 | CCOc1cc(=O)n(C)cc1-c1cc(N(CC2CC2)S(=O)(=O)Cc2ccccc2)ccc1Oc1ccc(F)cc1F [Example 76, N-(cyclopropylmethyl)-N-[4-(2,4-difluorophenoxy)-3-(4-ethoxy-1-methyl-6-oxo-1,6-dihydropyridin-3-yl)phenyl]-1-phenylmethanesulfonamide] | > 1000
15 | CCOc1cc(=O)n(C)cc1-c1cc(N(Cc2ccccc2)S(=O)(=O)Cc2ccccc2)ccc1Oc1ccc(F)cc1F [Example 77, N-benzyl-N-[4-(2,4-difluorophenoxy)-3-(4-ethoxy-1-methyl-6-oxo-1,6-dihydropyridin-3-yl)phenyl]-1-phenylmethanesulfonamide] | > 1000
16 | CCOc1cc(=O)n(C)cc1-c1cc(N(Cc2ccccc2Cl)S(=O)(=O)Cc2ccccc2)ccc1Oc1ccc(F)cc1F [Example 78, N-(2-chlorobenzyl)-N-[4-(2,4-difluorophenoxy)-3-(4-ethoxy-1-methyl-6-oxo-1,6-dihydropyridin-3-yl)phenyl]-1-phenylmethanesulfonamide] | > 1000
17 | CCOc1cc(=O)n(C)cc1-c1cc(N(CCc2ccccc2)S(=O)(=O)Cc2ccccc2)ccc1Oc1ccc(F)cc1F [Example 79, N-[4-(2,4-difluorophenoxy)-3-(4-ethoxy-1-methyl-6-oxo-1,6-dihydropyridin-3-yl)phenyl]-1-phenyl-N-(2-phenylethyl)methanesulfonamide] | > 1000
18 | CCOc1cc(=O)n(C)cc1-c1cc(N(CCc2ccccc2Cl)S(=O)(=O)CC)ccc1Oc1ccc(F)cc1F [Example 80, N-[2-(2-chlorophenyl)ethyl]-N-[4-(2,4-difluorophenoxy)-3-(4-ethoxy-1-methyl-6-oxo-1,6-dihydropyridin-3-yl)phenyl]ethanesulfonamide] | > 1000
19 | CCOc1cc(=O)n(C)cc1-c1cc(NC(=O)Cn2ccc(-c3ccccc3)n2)ccc1Oc1ccc(F)cc1F [Example 81, N-[4-(2,4-difluorophenoxy)-3-(4-ethoxy-1-methyl-6-oxo-1,6-dihydropyridin-3-yl)phenyl]-2-(3-phenyl-1H-pyrazol-1-yl)acetamide] | > 1000
20 | CCOc1cc(=O)n(C)cc1-c1cc(NC(=O)Cc2cc(Cl)ccc2F)ccc1Oc1ccc(F)cc1F [Example 82, 2-(5-chloro-2-fluorophenyl)-N-[4-(2,4-difluorophenoxy)-3-(4-ethoxy-1-methyl-6-oxo-1,6-dihydropyridin-3-yl)phenyl]acetamide] | > 1000
21 | CCOc1cc(=O)n(C)cc1-c1cc(NC(=O)Cc2csc(C)n2)ccc1Oc1ccc(F)cc1F [Example 83, N-[4-(2,4-difluorophenoxy)-3-(4-ethoxy-1-methyl-6-oxo-1,6-dihydropyridin-3-yl)phenyl]-2-(2-methyl-1,3-thiazol-4-yl)acetamide] | 304
22 | CCOc1cc(=O)n(C)cc1-c1cc(N(Cc2nccs2)S(=O)(=O)Cc2ccccc2)ccc1Oc1ccc(F)cc1F [Example 90, N-[4-(2,4-difluorophenoxy)-3-(4-ethoxy-1-methyl-6-oxo-1,6-dihydropyridin-3-yl)phenyl]-1-phenyl-N-(1,3-thiazol-2-ylmethyl)methanesulfonamide] | > 1000
23 | CCOc1cc(=O)n(C)cc1-c1cc(N(Cc2cccnc2)S(=O)(=O)CC)ccc1Oc1ccc(F)cc1F [Example 91, N-[4-(2,4-difluorophenoxy)-3-(4-ethoxy-1-methyl-6-oxo-1,6-dihydropyridin-3-yl)phenyl]-N-(pyridin-3-ylmethyl)ethanesulfonamide] | 505
24 | CCOc1cc(=O)n(C)cc1-c1cc(N(Cc2cccnc2)S(=O)(=O)Cc2ccccc2)ccc1Oc1ccc(F)cc1F [Example 92, N-[4-(2,4-difluorophenoxy)-3-(4-ethoxy-1-methyl-6-oxo-1,6-dihydropyridin-3-yl)phenyl]-1-phenyl-N-(pyridin-3-ylmethyl)methanesulfonamide] | > 1000
25 | CCOc1cc(=O)n(C)cc1-c1cc(N(Cc2cncnc2)S(=O)(=O)CC)ccc1Oc1ccc(F)cc1F [Example 93, N-[4-(2,4-difluorophenoxy)-3-(4-ethoxy-1-methyl-6-oxo-1,6-dihydropyridin-3-yl)phenyl]-N-(pyrimidin-5-ylmethyl)ethanesulfonamide] | > 1000
26 | CCOc1cc(=O)n(C)cc1-c1cc(N(Cc2cnccn2)S(=O)(=O)CC)ccc1Oc1ccc(F)cc1F [Example 95, N-[4-(2,4-difluorophenoxy)-3-(4-ethoxy-1-methyl-6-oxo-1,6-dihydropyridin-3-yl)phenyl]-N-(pyrazin-2-ylmethyl)ethanesulfonamide] | > 1000
27 | CCOc1cc(=O)n(C)cc1-c1cc(N(Cc2cnccn2)S(=O)(=O)Cc2ccccc2)ccc1Oc1ccc(F)cc1F [Example 96, N-[4-(2,4-difluorophenoxy)-3-(4-ethoxy-1-methyl-6-oxo-1,6-dihydropyridin-3-yl)phenyl]-1-phenyl-N-(pyrazin-2-ylmethyl)methanesulfonamide] | > 1000
